According to paper PMC11728000, “Antitumor Activity and Multi-Target Mechanism of Phenolic Schiff Bases Bearing Methanesulfonamide Fragments: Cell Cycle Analysis and a Molecular Modeling Study” (International Journal of Molecular Sciences, 2024):
Values joined by “and” are separate entries in the source; they are usually repeats but may differ in a detail not shown here. Equal entries are not always repeated. Where two headings read alike, the source gives them in different places.

Key:
CCRF-CEM = assay: NCI anticancer screening (SRB), Leukemia subpanel; assay type: cell-based, human; settings: for GI%: 10.0 µM in one dose
MOLT-4 = assay: NCI anticancer screening (SRB), Leukemia subpanel; assay type: cell-based, human; settings: for GI%: 10.0 µM in one dose
HOP-92 [1] = assay: NCI anticancer screening (SRB), Non-Small Cell Lung Cancer subpanel; assay type: cell-based, human; settings: for GI%: 10.0 µM in one dose
NCI-H226 = assay: as above; assay type: cell-based, human; settings: for GI%: 10.0 µM in one dose
NCI-H460 = assay: as above; assay type: cell-based, human; settings: for GI%: 10.0 µM in one dose
HCC-2998 = assay: NCI anticancer screening (SRB), Colon Cancer subpanel; assay type: cell-based, human; settings: for GI%: 10.0 µM in one dose
KM12 = assay: as above; assay type: cell-based, human; settings: for GI%: 10.0 µM in one dose
SF-539 = assay: NCI anticancer screening (SRB), CNS Cancer subpanel; assay type: cell-based, human; settings: for GI%: 10.0 µM in one dose
U251 = assay: as above; assay type: cell-based, human; settings: for GI%: 10.0 µM in one dose
M14 = assay: NCI anticancer screening (SRB), Melanoma subpanel; assay type: cell-based, human; settings: for GI%: 10.0 µM in one dose
SK-MEL-2 = assay: NCI anticancer screening (SRB), Melanoma subpanel; assay type: cell-based, human; settings: for GI%: 10.0 µM in one dose
SK-MEL-5 = assay: NCI anticancer screening (SRB), Melanoma subpanel; assay type: cell-based, human; settings: for GI%: 10.0 µM in one dose
OVCAR-8 = assay: NCI anticancer screening (SRB), Ovarian Cancer subpanel; assay type: cell-based, human; settings: for GI%: 10.0 µM in one dose
NCI/ADR-RES = assay: as above; assay type: cell-based, human; settings: for GI%: 10.0 µM in one dose
SK-OV-3 = assay: as above; assay type: cell-based, human; settings: for GI%: 10.0 µM in one dose
786-0 = assay: NCI anticancer screening (SRB), Renal Cancer subpanel; assay type: cell-based, human; settings: for GI%: 10.0 µM in one dose
A498 = assay: as above; assay type: cell-based, human; settings: for GI%: 10.0 µM in one dose
CAKI-1 = assay: as above; assay type: cell-based, human; settings: for GI%: 10.0 µM in one dose
SN12C = assay: as above; assay type: cell-based, human; settings: for GI%: 10.0 µM in one dose
PC-3 = assay: NCI anticancer screening (SRB), Prostate Cancer subpanel; assay type: cell-based, human; settings: for GI%: 10.0 µM in one dose
DU-145 = assay: as above; assay type: cell-based, human; settings: for GI%: 10.0 µM in one dose
MCF-7 = assay: NCI anticancer screening (SRB), Breast Cancer subpanel; assay type: cell-based, human; settings: for GI%: 10.0 µM in one dose
HS 578T = assay: as above; assay type: cell-based, human; settings: for GI%: 10.0 µM in one dose
BT-549 = assay: as above; assay type: cell-based, human; settings: for GI%: 10.0 µM in one dose
MDA-MB-468 = assay: as above; assay type: cell-based, human; settings: for GI%: 10.0 µM in one dose
COX-2 = target: T1, COX-2 (Ovis aries, UniProt P79208); assay: biochemical; settings: read-out: IC50, COX-2 Inhibition
T1 construct: purchased Cayman Chemical 560101
T1 sequence (P79208 17-603): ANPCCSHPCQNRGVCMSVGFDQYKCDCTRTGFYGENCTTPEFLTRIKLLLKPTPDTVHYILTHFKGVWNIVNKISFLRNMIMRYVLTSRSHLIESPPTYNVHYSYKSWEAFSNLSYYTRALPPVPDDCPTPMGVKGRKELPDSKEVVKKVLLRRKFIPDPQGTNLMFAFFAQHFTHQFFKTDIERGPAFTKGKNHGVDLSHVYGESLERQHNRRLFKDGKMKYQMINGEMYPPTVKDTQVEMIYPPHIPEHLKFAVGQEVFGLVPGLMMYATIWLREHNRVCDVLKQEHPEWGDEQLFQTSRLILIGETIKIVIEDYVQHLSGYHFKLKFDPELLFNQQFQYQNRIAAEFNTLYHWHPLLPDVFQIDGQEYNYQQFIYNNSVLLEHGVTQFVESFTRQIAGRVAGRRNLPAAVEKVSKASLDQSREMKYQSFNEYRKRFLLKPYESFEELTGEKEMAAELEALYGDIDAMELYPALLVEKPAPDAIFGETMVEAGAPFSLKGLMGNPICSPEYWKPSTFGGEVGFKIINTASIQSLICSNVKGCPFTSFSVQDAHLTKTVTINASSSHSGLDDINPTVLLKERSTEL
Method: the measured protein at the end of the drug treatment as compared to that at the beginning) indicating a net loss of cells following treatment was calculated from [(Ti − Tz)/Tz] […] = − 50.
Values were calculated for each of these three parameters if the activity level was reached; however, if the effect was not reached or exceeded, that parameter's value was expressed as more or less than the maximum or minimum concentration tested. The log GI50, log TGI, and log LC50 were then determined and defined as the mean of the logs of the individual GI50, TGI, and LC50 values. The lowest values are obtained with the most sensitive cell lines. The compound with […]
2. In vitro cytotoxic activity towards normal fibroblast (WI-38) cells Cell Lines were obtained from the American Type Culture Collection; cells were cultured using DMEM (Invitrogen/Life Technologies) supplemented with 10% FBS (Hyclone), ten ug/ml of insulin (Sigma), and 1% penicillin–streptomycin. Cultures were removed from the incubator into a laminar flow hood, reconstituted with 3 mL of balanced salt solution without phenol red and serum, and then added to an amount equal to 10% of the culture medium volume. […]
medium volume. The absorbance was measured Spectrophotometrically at a wavelength of 570 […]
The ability of the test compounds to inhibit COX-2 was determined using an enzyme immunoassay […]

caspase-8 = assay: Apoptotic markers assay, caspase-8 level in MCF-7 cells; assay type: cell-based, human; settings: MCF-7 cells treated at IC50 concentrations; vs untreated control = 1
Method: (§1) We measured the apoptosis promoter Bax levels, the apoptosis inhibitor Bcl−2, and the apoptosis coordination enzymes caspase-8 and caspase-9 [32].
(§2) The apoptotic marker method was carried out using the reported procedure using MCF-7, the cancer cell line (Supplementary Materials). […]
(§3) 7. Caspase-8 and 9 activation assay
(§4) A breast carcinoma (MCF-7) cell line was obtained from ATCC. […]
(§5) allowed cells to grow at 37 °C, stimulated with the compounds to be tested for caspase-8 or caspase-9 and lysed with Cell Extraction Buffer. Standard Diluent Buffer was used to dilute the lysate over the range of the assay and measure human active caspase-8 or caspase-9 content. (cells are Plated in a density of 1.2-1.8 X 10,000 cells/well in a volume of 100 µL complete growth medium + 100 µL of the tested compound per well in a 96-well plate for 24/48 h before the enzyme assay).
(§6) 8. Evaluation of Bax and Bcl-2 expressions m RNA isolation was carried out using an RNeasy extraction kit, up to 1 X 107 cells. They were disrupted in Buffer RLT and homogenized. Ethanol was added to the lysate to promote the selective binding of RNA to the RNeasy membrane. Then, the sample was applied to the RNeasy

caspase-9 = assay: Apoptotic markers assay, caspase-9 level in MCF-7 cells; assay type: cell-based, human; settings: MCF-7 cells treated at IC50 concentrations; vs untreated control = 1
Method: as §1, §2, §3, §4, §5, §6

HOP-92 [2] = test system: HOP-92; set-up: method as in https://dtp.cancer.gov/dtpstandard/dwindex/index.jsp; settings: ref https://dtp.cancer.gov/dtpstandard/dwindex/index.jsp; cited from earlier work
HCT-116 = test system: HCT-116; set-up: method as in https://dtp.cancer.gov/dtpstandard/dwindex/index.jsp; settings: ref https://dtp.cancer.gov/dtpstandard/dwindex/index.jsp; cited from earlier work
HL-60(TB) = test system: HL-60(TB); set-up: method as in https://dtp.cancer.gov/dtpstandard/dwindex/index.jsp; settings: ref https://dtp.cancer.gov/dtpstandard/dwindex/index.jsp; cited from earlier work
[3] = Homo sapiens, five concentrations

CCN(CC)c1ccc(C=NNC(=O)c2ccc(NS(C)(=O)=O)cc2)c(O)c1 [Compound 8]
GI% (CCRF-CEM): 94% | GI50 (CCRF-CEM; [3]): 177 nM | GI% (MOLT-4): 90% | GI50 (MOLT-4; [3]): 372 nM | GI% (HOP-92 [1]): 61% | GI50 (HOP-92 [1]; [3]): 443 nM | GI% (NCI-H226): 61% | GI50 (NCI-H226; [3]): 986 nM | GI% (NCI-H460): 97% | GI50 (NCI-H460; [3]): 475 nM | GI% (HCC-2998): 62% | GI50 (HCC-2998; [3]): 356 nM | GI% (KM12): 85% | GI50 (KM12; [3]): 509 nM | GI% (SF-539): 93% | GI50 (SF-539; [3]): 362 nM | GI% (U251): 76% | GI50 (U251; Homo sapiens, U-251, five concentrations): 226 nM | GI% (M14): 100% | GI50 (M14; [3]): 351 nM | GI% (SK-MEL-2): 59% | GI50 (SK-MEL-2; [3]): 749 nM | GI% (SK-MEL-5): 100% | GI50 (SK-MEL-5; [3]): 1130 nM | GI% (OVCAR-8): 88% | GI50 (OVCAR-8; [3]): 312 nM | GI% (NCI/ADR-RES): 63% | GI50 (NCI/ADR-RES; [3]): 2580 nM | GI% (SK-OV-3): 66% | GI50 (SK-OV-3; [3]): 450 nM | GI% (786-0): 98% | GI50 (786-0; [3]): 358 nM | GI% (A498): 81% | GI50 (A498; [3]): 2230 nM | GI% (CAKI-1): 81% | GI50 (CAKI-1; [3]): 464 nM | GI% (SN12C): 69% | GI50 (SN12C; [3]): 603 nM | GI% (PC-3): 68% | GI50 (PC-3; [3]): 368 nM | GI% (DU-145): 69% | GI50 (DU-145; [3]): 685 nM | GI% (MCF-7): 94% | GI50 (MCF-7; Homo sapiens, MCF7, five concentrations): 416 nM | GI% (HS 578T): 44% | GI50 (HS 578T; [3]): 1470 nM | GI% (BT-549): 88% | GI50 (BT-549; [3]): 569 nM | GI% (MDA-MB-468): > 100% | GI50 (MDA-MB-468; [3]): 335 nM | IC50 (COX-2): 12800 ± 510 nM | Casp8, Gene Expression (Fold Change) (caspase-8): 6.456 fold change | Casp9, Gene Expression (Fold Change) (caspase-9): 3.776 fold change

CS(=O)(=O)Nc1ccc(C(=O)NN=Cc2ccccc2O)cc1 [Compound 7]
GI% (CCRF-CEM): 63% | GI% (MOLT-4): 50% | GI% (HOP-92 [1]): 44% | GI% (NCI-H226): 25% | GI% (NCI-H460): 21% | GI% (HCC-2998): 41% | GI% (KM12): 35% | GI% (SF-539): 40% | GI% (U251): 56% | GI% (M14): 44% | GI% (SK-MEL-2): 22% | GI% (SK-MEL-5): 33% | GI% (OVCAR-8): 32% | GI% (NCI/ADR-RES): 41% | GI% (SK-OV-3): 42% | GI% (786-0): 25% | GI% (A498): 16% | GI% (CAKI-1): 35% | GI% (SN12C): 23% | GI% (PC-3): 38% | GI% (DU-145): 33% | GI% (MCF-7): 21% | GI% (HS 578T): 11% | GI% (BT-549): 27% | GI% (MDA-MB-468): 24% | IC50 (COX-2): 20900 ± 820 nM | Casp8, Gene Expression (Fold Change) (caspase-8): 5.171 fold change | Casp9, Gene Expression (Fold Change) (caspase-9): 2.99 fold change and 2.990 fold change

COc1cc2ncnc(Nc3ccc(F)c(Cl)c3)c2cc1OCCCN1CCOCC1 [Gefitinib, gefitinib]
GI50 (HOP-92 [2]): 316 nM | GI50 (HCT-116): 3160 nM

C#Cc1cccc(Nc2ncnc3cc(OCCOC)c(OCCOC)cc23)c1 [Erlotinib, erlotinib]
GI50 (HL-60(TB)): 25100 nM | GI50 (HOP-92 [2]): 3980 nM | GI50 (HCT-116): 6310 nM

Cc1ccc(-c2cc(C(F)(F)F)nn2-c2ccc(S(N)(=O)=O)cc2)cc1 [Celecoxib, celecoxib]
GI50 (HL-60(TB)): 15800 nM
